Key:
Experiment in all cases: DSF thermal shift
Type in all cases: binding
Conditions in all cases: 10 µM inhibitor; read-out: Tm shift
LOK = biological target: T1, LOK (Homo sapiens, UniProt O94804)
T1 construct: purchased Nanosyn (enzymatic panel); SGC in-house recombinant human kinases (DSF panel); Invitrogen (ALK1-6)
Protocol: (§1) Thermal melting experiments were performed using a Real Time PCR machine Mx3005p (Stratagene) with a protein concentration of 1–2 µM and 10 µM inhibitor as described previously, [25]. […] Recombinant human kinases for DSF screening were prepared by SGC using published methods, [36].

CLK4 = biological target: T2, CLK4 (Homo sapiens, UniProt Q9HAZ1)
T2 construct: purchased Nanosyn (enzymatic panel); SGC in-house recombinant human kinases (DSF panel); Invitrogen (ALK1-6)
Protocol: as §1

MST3 = biological target: T3, MST3 (Homo sapiens, UniProt Q9Y6E0)
T3 construct: purchased Nanosyn (enzymatic panel); SGC in-house recombinant human kinases (DSF panel); Invitrogen (ALK1-6)
Protocol: as §1

CK1γ1 = biological target: T4, CK1γ1 (Homo sapiens, UniProt Q9HCP0)
T4 construct: purchased Nanosyn (enzymatic panel); SGC in-house recombinant human kinases (DSF panel); Invitrogen (ALK1-6)
Protocol: as §1

PIM3 = biological target: T5, PIM3 (Homo sapiens, UniProt Q86V86)
T5 construct: purchased Nanosyn (enzymatic panel); SGC in-house recombinant human kinases (DSF panel); Invitrogen (ALK1-6)
Protocol: as §1

p38δ = biological target: T6, p38δ (Homo sapiens, UniProt O15264)
T6 construct: purchased Nanosyn (enzymatic panel); SGC in-house recombinant human kinases (DSF panel); Invitrogen (ALK1-6)
T6 sequence (O15264 1-365): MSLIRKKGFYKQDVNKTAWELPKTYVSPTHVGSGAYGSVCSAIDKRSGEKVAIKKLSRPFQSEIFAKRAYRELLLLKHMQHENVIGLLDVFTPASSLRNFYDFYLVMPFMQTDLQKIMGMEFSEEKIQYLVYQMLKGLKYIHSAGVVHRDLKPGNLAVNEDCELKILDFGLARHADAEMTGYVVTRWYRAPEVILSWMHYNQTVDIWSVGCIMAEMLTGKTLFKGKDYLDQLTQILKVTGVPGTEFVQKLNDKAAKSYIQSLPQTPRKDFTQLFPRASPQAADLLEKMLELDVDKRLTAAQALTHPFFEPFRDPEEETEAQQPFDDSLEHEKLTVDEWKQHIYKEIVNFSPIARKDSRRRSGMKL
Protocol: as §1

NEK1 = biological target: T7, NEK1 (Homo sapiens, UniProt Q96PY6)
T7 construct: purchased Nanosyn (enzymatic panel); SGC in-house recombinant human kinases (DSF panel); Invitrogen (ALK1-6)
T7 sequence (Q96PY6 1-1258): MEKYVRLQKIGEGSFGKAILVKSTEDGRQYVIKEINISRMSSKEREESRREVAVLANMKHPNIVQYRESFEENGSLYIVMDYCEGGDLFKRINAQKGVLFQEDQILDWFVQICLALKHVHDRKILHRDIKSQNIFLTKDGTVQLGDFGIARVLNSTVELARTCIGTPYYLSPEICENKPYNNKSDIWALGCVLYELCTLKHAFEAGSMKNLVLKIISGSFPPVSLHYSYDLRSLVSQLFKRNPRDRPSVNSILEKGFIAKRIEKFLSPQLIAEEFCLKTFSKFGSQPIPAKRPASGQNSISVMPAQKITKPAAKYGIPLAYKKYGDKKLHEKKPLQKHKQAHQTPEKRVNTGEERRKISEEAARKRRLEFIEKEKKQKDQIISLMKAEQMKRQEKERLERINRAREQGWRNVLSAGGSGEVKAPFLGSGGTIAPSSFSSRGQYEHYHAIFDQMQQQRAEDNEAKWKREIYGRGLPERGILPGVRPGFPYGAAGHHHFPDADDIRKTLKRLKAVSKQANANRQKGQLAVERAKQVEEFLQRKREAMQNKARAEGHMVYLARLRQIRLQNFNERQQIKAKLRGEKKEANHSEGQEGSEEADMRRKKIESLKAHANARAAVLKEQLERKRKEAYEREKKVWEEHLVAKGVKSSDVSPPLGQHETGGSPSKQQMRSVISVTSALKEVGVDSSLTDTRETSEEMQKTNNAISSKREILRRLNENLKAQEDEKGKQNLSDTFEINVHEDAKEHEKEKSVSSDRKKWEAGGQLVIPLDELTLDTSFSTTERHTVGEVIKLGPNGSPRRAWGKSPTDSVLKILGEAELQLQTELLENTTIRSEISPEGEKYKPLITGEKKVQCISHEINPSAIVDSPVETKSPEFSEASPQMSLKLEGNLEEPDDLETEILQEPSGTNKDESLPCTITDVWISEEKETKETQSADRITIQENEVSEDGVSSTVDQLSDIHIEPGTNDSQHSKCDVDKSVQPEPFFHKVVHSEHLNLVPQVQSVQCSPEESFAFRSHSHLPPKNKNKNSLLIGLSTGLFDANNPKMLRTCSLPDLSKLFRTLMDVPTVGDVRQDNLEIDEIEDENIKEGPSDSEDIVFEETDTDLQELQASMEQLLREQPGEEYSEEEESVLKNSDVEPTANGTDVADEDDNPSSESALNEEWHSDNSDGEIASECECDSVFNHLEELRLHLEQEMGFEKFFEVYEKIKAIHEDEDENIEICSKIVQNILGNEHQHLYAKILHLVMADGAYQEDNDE
Protocol: as §1

CLK2 = biological target: T8, CLK2 (Homo sapiens, UniProt P49760)
T8 construct: purchased Nanosyn (enzymatic panel); SGC in-house recombinant human kinases (DSF panel); Invitrogen (ALK1-6)
Protocol: as §1

VRK2 = biological target: T9, VRK2 (Homo sapiens, UniProt Q86Y07)
T9 construct: purchased Nanosyn (enzymatic panel); SGC in-house recombinant human kinases (DSF panel); Invitrogen (ALK1-6)
Protocol: as §1

AMPKα1 = biological target: T10, AMPKα1 (Homo sapiens, UniProt Q13131)
T10 construct: purchased Nanosyn (enzymatic panel); SGC in-house recombinant human kinases (DSF panel); Invitrogen (ALK1-6)
Protocol: as §1

MST4 = biological target: T11, MST4 (Homo sapiens, UniProt Q9P289)
T11 construct: purchased Nanosyn (enzymatic panel); SGC in-house recombinant human kinases (DSF panel); Invitrogen (ALK1-6)
Protocol: as §1

PIM1 = biological target: T12, PIM1 (Homo sapiens, UniProt P11309)
T12 construct: purchased Nanosyn (enzymatic panel); SGC in-house recombinant human kinases (DSF panel); Invitrogen (ALK1-6)
Protocol: as §1

DRAK2 = biological target: T13, DRAK2 (Homo sapiens, UniProt O94768)
T13 construct: purchased Nanosyn (enzymatic panel); SGC in-house recombinant human kinases (DSF panel); Invitrogen (ALK1-6)
T13 sequence (O94768 1-372): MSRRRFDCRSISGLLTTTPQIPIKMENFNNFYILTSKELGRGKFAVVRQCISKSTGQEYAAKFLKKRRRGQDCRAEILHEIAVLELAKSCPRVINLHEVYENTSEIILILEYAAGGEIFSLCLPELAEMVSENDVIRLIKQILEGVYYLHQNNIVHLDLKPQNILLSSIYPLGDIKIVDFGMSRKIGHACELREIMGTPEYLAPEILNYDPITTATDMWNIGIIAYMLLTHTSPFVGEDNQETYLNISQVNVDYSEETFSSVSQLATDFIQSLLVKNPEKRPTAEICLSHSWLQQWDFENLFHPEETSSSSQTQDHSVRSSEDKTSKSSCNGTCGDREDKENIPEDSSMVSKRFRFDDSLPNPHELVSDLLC
Protocol: as §1

YANK1 = biological target: T14, YANK1 (Homo sapiens, UniProt Q8WU08)
T14 construct: purchased Nanosyn (enzymatic panel); SGC in-house recombinant human kinases (DSF panel); Invitrogen (ALK1-6)
Protocol: as §1

SLK = biological target: T15, SLK (Homo sapiens, UniProt Q9H2G2)
T15 construct: purchased Nanosyn (enzymatic panel); SGC in-house recombinant human kinases (DSF panel); Invitrogen (ALK1-6)
Protocol: as §1

MPSK1 = biological target: T16, MPSK1 (Homo sapiens, UniProt O75716)
T16 construct: purchased Nanosyn (enzymatic panel); SGC in-house recombinant human kinases (DSF panel); Invitrogen (ALK1-6)
Protocol: as §1

T14 sequence (Q8WU08 whole entry): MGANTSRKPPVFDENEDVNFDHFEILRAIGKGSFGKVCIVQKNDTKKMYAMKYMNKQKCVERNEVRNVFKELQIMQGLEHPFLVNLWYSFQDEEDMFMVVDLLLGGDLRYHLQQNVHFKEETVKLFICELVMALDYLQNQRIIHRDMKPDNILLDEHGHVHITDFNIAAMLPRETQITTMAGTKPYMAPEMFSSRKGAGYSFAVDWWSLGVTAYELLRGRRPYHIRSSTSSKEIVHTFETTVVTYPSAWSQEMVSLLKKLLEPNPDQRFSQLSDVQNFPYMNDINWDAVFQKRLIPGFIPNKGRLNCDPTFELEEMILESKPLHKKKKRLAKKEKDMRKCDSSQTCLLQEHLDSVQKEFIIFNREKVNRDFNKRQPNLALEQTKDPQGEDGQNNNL
T4 sequence (Q9HCP0 whole entry): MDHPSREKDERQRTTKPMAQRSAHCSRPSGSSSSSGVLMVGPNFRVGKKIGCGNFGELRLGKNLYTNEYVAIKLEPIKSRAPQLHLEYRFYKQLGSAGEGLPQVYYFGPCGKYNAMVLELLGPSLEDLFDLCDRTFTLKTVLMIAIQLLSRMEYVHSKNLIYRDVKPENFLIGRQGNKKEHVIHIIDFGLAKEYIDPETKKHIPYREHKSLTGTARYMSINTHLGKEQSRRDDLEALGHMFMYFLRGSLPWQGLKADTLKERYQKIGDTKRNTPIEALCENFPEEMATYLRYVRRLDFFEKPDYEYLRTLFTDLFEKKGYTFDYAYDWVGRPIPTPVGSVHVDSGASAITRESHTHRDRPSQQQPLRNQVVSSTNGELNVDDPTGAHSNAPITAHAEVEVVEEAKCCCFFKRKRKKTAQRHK
T2 sequence (Q9HAZ1 whole entry): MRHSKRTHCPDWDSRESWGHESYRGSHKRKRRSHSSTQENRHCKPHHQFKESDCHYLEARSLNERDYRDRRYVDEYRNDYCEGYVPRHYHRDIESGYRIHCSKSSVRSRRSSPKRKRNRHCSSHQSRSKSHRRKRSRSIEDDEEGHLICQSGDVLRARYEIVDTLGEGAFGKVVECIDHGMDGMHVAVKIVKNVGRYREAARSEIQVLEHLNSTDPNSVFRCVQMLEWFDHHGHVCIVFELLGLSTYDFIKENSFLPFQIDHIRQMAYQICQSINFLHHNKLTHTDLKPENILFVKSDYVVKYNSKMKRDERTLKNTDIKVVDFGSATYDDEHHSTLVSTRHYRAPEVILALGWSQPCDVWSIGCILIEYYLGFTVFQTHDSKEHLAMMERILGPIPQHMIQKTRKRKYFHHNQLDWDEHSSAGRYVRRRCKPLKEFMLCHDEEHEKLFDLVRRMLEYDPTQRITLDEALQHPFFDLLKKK
T10 sequence (Q13131 whole entry): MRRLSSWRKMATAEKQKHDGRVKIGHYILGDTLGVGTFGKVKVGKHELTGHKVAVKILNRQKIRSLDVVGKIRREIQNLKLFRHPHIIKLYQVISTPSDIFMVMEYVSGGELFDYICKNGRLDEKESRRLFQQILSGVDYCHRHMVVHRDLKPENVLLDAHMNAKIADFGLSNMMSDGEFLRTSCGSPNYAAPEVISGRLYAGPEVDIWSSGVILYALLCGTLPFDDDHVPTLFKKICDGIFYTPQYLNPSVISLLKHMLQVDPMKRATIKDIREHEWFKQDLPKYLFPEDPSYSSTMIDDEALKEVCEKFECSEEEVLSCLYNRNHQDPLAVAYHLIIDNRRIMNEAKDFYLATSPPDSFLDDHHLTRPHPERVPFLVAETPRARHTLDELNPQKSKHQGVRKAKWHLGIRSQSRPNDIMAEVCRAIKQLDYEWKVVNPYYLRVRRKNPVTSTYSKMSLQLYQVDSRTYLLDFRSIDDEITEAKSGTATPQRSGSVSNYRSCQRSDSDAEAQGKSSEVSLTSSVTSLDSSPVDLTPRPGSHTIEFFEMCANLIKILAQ
T10 sequence (Q9Y478 whole entry partner): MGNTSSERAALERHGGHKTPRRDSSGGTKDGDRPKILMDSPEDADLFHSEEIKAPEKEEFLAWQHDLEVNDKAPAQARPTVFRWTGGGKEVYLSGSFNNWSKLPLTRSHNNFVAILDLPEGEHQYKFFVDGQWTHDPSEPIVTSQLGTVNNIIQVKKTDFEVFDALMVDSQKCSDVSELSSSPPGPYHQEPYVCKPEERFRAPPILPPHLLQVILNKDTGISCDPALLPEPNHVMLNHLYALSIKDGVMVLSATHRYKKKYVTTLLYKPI
T10 sequence (P54619 whole entry partner): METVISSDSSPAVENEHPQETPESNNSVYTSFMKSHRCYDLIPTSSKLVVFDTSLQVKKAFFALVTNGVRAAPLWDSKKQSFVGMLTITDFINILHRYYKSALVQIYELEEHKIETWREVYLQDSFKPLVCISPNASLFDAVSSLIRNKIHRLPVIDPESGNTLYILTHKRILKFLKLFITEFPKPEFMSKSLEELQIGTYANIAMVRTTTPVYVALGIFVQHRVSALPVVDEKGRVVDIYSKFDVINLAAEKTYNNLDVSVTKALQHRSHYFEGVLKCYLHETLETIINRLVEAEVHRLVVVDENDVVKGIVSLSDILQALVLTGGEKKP
T8 sequence (P49760 whole entry): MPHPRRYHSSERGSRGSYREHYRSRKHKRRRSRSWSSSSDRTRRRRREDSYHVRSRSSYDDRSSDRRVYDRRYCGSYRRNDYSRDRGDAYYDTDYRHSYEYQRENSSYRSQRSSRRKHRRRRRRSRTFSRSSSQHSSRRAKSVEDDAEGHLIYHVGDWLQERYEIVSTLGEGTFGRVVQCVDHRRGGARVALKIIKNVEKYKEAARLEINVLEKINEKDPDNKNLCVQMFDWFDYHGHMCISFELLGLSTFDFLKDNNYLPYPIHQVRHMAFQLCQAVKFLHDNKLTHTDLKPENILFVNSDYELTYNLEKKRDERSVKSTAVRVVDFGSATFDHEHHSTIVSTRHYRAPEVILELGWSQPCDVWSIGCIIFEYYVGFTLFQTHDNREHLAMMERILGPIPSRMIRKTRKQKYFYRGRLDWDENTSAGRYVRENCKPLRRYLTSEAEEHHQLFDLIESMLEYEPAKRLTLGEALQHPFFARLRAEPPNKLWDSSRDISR
T12 sequence (P11309 whole entry): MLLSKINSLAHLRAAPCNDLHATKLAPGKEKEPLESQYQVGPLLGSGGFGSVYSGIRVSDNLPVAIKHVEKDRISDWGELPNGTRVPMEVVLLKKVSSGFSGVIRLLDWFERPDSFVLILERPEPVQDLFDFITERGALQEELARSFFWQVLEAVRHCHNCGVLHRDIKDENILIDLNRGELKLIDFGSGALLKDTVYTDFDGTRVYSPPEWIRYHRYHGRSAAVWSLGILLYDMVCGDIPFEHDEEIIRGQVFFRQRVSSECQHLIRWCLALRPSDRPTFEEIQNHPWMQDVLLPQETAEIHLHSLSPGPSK
T1 sequence (O94804 whole entry): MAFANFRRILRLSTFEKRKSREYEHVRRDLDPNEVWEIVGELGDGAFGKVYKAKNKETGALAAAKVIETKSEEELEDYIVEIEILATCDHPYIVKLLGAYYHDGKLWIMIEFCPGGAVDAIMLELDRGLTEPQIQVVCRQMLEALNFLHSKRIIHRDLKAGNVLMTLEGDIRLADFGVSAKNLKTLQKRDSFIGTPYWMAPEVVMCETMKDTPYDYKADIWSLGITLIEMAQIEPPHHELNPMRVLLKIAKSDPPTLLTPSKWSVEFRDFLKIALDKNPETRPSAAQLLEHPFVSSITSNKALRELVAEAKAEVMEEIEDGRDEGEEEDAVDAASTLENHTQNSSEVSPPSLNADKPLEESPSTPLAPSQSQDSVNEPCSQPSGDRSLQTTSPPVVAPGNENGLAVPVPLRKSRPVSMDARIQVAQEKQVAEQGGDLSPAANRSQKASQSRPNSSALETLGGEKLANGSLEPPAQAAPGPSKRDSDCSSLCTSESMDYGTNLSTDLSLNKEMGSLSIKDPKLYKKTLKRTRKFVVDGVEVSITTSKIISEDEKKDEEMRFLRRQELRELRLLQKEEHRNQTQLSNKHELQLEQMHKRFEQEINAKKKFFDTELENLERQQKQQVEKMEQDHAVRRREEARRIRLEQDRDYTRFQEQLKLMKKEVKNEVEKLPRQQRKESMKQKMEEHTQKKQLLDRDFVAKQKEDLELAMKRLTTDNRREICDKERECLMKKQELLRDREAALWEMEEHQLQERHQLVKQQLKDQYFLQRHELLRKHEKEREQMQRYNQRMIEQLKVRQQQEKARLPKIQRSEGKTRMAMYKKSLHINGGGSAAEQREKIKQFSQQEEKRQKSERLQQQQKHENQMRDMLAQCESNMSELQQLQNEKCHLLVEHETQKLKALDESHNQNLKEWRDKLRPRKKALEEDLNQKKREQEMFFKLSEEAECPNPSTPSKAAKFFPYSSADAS
T16 sequence (O75716 whole entry): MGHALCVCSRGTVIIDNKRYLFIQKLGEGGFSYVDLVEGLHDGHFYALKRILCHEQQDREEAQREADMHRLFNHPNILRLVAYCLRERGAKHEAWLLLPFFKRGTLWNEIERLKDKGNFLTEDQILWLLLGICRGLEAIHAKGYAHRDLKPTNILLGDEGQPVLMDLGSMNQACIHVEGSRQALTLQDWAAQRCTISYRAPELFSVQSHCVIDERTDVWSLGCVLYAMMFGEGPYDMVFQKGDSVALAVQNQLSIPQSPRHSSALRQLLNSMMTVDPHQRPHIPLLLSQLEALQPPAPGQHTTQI

| Structure (SMILES) | ΔTm at 10 µM (LOK) | ΔTm at 10 µM (CLK4) | ΔTm at 10 µM (MST3) | ΔTm at 10 µM (CK1γ1) | ΔTm at 10 µM (PIM3) | ΔTm at 10 µM (p38δ) | ΔTm at 10 µM (NEK1) | ΔTm at 10 µM (CLK2) | ΔTm at 10 µM (VRK2) | ΔTm at 10 µM (AMPKα1) | ΔTm at 10 µM (MST4) | ΔTm at 10 µM (PIM1) | ΔTm at 10 µM (DRAK2) | ΔTm at 10 µM (YANK1) | ΔTm at 10 µM (SLK) | ΔTm at 10 µM (MPSK1) |
| --- | --- | --- | --- | --- | --- | --- | --- | --- | --- | --- | --- | --- | --- | --- | --- | --- |
| c1cc(-c2cnn3cc(-c4ccc(OCCN5CCCCC5)cc4)cnc23)ccn1 [Dorsomorphin] | 2.5 °C | 8.7 °C | 4.6 °C | 0.4 °C | 0.6 °C | 0 °C | 0.1 °C | 5 °C | 0.2 °C | 3.9 °C | 0.7 °C | 0.6 °C | 10 °C | 0.5 °C | 1.6 °C | 5.3 °C |
| COc1cc(-c2cc(-c3cccc(O)c3)cnc2N)cc(OC)c1OC [K02288, 3-[6-amino-5-(3,4,5-trimethoxy-phenyl)-pyridin-3-yl]-phenol] | 2.1 °C | 0.3 °C | 0.3 °C | 0.7 °C | -0.2 °C | -0.2 °C | 0.2 °C | 0 °C | 0.6 °C | 0.2 °C | 0.2 °C | 0.1 °C | 0.6 °C | 0.2 °C | 1 °C | 0.3 °C |
| c1ccc2c(-c3cnn4cc(-c5ccc(N6CCNCC6)cc5)cnc34)ccnc2c1 [LDN-193189] | 3.1 °C | 5.3 °C | 7.9 °C | 0.3 °C | -0.2 °C | -0.4 °C | 0.2 °C | 3.3 °C | -0.2 °C | 4.3 °C | 0.8 °C | 0.5 °C | 2.1 °C | 1.2 °C | 1.2 °C | 5.3 °C |
